Source: patent US20110105457A1, “HETEROCYCLIC COMPOUND HAVING INHIBITORY ACTIVITY ON PI3K” (SHIONOGI & CO., LTD., priority 2008, published 2011)

Target: PI-3 kinase γ (Homo sapiens, UniProt P48736)
Assay: PI3Kγ inhibitory activity, PI3-kinase HTRF assay (Millipore)
Assay type: biochemical
Conditions: 0.5 h; compound 50 μM; read-out: Inhibition ratio % (50 μM)
Method: (Method) The PI3Kγ inhibitory activity of a compound was evaluated using PI3-kinase HTRF™ assay (Millipore) according to the following procedure.
To each well of a testing plate was added 5 μL of a compound solution comprising 10% DMSO (200 μM as the concentration of the compound), 5 μL of 40 μM phosphatidylinositol (4,5)-bisphosphate/20 mM MgCl2/10 mM DTT, and 5 μL of 80 μg/mL PI-3 kinase γ/10 mM MgCl2/5 mM DTT, and then stood for 10 minutes.
Then, 5 μL of 40 μM ATP/10 mM MgCl2/5 mM DTT was added thereto. After reacting for 30 minutes at room temperature, 5 μL of a solution comprising EDTA and biotinylated phosphatidylinositol (3,4,5)-triphosphate was added to quench the reaction.
5 μL of a detection reagent comprising a europium-labeled anti-GST antibody, the GST-tagged PH domain, and allophycocyanin-labeled streptavidin was added thereto. After 18 hours, HTRF (excitation wavelength: 330 nm, measuring wavelengths: 620 nm and 665 nm) was measured.
A value of dividing an amount of fluorescence obtained at the measuring wavelength 665 nm by an amount of fluorescence obtained at 620 nm was defined as an HTRF ratio. The HTRF ratio in the absence of a compound was defined as 100% activity, and the HTRF ratio in the absence of PI-3 kinase γ was defined as 0% activity to calculate an inhibition ratio.

PI-3 kinase γ, sequence (P48736 whole entry): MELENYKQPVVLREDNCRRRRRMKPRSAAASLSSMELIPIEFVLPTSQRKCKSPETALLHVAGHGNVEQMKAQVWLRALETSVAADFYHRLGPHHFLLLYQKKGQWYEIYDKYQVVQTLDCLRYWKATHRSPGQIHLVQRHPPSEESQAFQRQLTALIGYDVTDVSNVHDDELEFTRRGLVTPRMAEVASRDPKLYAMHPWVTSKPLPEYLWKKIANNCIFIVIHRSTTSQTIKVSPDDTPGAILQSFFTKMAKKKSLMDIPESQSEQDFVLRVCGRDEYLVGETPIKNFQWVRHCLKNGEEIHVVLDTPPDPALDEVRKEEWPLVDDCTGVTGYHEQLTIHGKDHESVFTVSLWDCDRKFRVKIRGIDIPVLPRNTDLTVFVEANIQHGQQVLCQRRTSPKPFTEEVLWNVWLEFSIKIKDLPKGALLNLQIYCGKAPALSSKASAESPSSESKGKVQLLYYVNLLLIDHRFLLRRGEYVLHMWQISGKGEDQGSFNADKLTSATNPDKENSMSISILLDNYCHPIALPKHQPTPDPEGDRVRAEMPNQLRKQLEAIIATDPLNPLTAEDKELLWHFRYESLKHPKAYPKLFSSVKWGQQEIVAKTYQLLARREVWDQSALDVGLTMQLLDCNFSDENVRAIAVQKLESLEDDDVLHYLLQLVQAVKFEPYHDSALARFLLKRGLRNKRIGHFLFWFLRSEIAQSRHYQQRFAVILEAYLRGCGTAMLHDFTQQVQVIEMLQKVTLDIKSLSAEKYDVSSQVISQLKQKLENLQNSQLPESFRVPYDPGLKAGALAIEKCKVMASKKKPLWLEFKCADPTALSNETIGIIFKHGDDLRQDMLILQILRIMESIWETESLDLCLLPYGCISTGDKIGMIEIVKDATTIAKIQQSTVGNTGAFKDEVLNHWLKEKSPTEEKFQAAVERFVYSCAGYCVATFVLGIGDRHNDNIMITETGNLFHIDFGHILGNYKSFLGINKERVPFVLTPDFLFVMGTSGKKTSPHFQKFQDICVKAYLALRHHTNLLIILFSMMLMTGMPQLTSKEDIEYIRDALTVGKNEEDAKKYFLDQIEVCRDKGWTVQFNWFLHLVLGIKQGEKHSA

Row | inhibition at 50 µM [%] | Compound
1 | 74 | CNC(=O)Nc1cn2nc(C(=O)Nc3ccc4[nH]ccc4c3)ccc2n1 [Compound I-45]
2 | 79 | CNC(=O)Nc1cn2nc(-c3cccc(C(C)C)c3)ccc2n1 [Compound I-127]
3 | 65 | COc1cccc(-c2ccc3nc(NC(=O)CC4CC4)cn3n2)c1 [Compound I-188]
4 | 55 | CNC(=O)Nc1cn2nc(Nc3cccc(C(=O)NC)c3)ccc2n1 [Compound I-216]
5 | 70 | CNC(=O)Nc1cn2nc(-c3cc4ccccc4s3)ccc2n1 [Compound I-58]
6 | 60 | CNC(=O)Nc1cn2nc(NC(=O)Nc3ccccc3)ccc2n1 [Compound I-5]
7 | 72 | CNC(=O)Nc1cn2nc(-c3ccoc3)ccc2n1 [Compound I-76]
8 | 111 | CNC(=O)Nc1cn2nc(Nc3cccc(O)c3)ccc2n1 [Compound I-85]
9 | 70 | CNC(=O)Nc1cn2nc(C(=O)N3CCC(C(=O)O)CC3)ccc2n1 [Compound I-32]
10 | 84 | COc1cccc(-c2ccc3nc(NC(=O)c4cccc(-n5cncn5)c4)cn3n2)c1 [Compound I-204]
11 | 81 | COc1cccc(-c2ccc3nc(NC(=O)CCCN4CCCC4=O)cn3n2)c1 [Compound I-209]
12 | 79 | COc1cccc(-c2ccc3nc(NC(=O)NC4CCCCNC4=O)cn3n2)c1 (stereo not drawn) [Compound I-233]
13 | 70 | CNC(=O)Nc1cn2nc(Nc3cccc(C(N)=O)c3)ccc2n1 [Compound I-215]
14 | 85 | CNC(=O)Nc1cn2nc(Nc3ccc(OC)cc3)ccc2n1 [Compound I-54]
15 | 72 | CNC(=O)Nc1cn2nc(Cl)ccc2n1 [Compound I-1]
16 | 76 | CNC(=O)Nc1cn2nc(C(=O)c3cccc(OC)c3)ccc2n1 [Compound I-17]
17 | 127 | COc1cccc(-c2ccc3nc(Nc4ccc(CO)cn4)cn3n2)c1 [Compound I-289]
18 | 76 | COCCNC(=O)Nc1cn2nc(-c3cccc(OC)c3)ccc2n1 [Compound I-245]
19 | 78 | COc1cccc(-c2ccc3nc(NC(=O)Cc4ccccc4OC)cn3n2)c1 [Compound I-174]
20 | 84 | CCOC(=O)CNC(=O)Nc1cn2nc(-c3cccc(OC)c3)ccc2n1 [Compound I-112]
21 | 66 | COc1cccc(-c2ccc3nc(NC(=O)CNC(C)=O)cn3n2)c1 [Compound I-175]
22 | 82 | CNC(=O)Nc1cn2nc(-c3ccccc3)ccc2n1 [Compound I-9]
23 | 62 | CNC(=O)Nc1cn2nc(COc3cccc(C(=O)OC)c3)ccc2n1 [Compound I-217]
24 | 63 | CNC(=O)Nc1cn2nc(-c3cccc(OC)n3)ccc2n1 [Compound I-151]
25 | 90 | CNC(=O)Nc1cn2nc(-c3cccc(OC)c3)ccc2n1 [Compound I-36]
26 | 92 | COc1cccc(-c2ccc3nc(Nc4cccc(O)n4)cn3n2)c1 [Compound I-290]

Row | inhibition at 50 µM [%] | Compound
27 | 86 | CCOC(=O)CNC(=O)Nc1cn2nc(-c3cncc(OC)c3)ccc2n1 [Compound I-223]
28 | 91 | CNC(=O)Nc1cn2nc(-c3ccc(OC)cc3)ccc2n1 [Compound I-63]
29 | 73 | COc1cccc(-c2ccc3nc(NC(=O)N4CCC[C@H]4CO)cn3n2)c1 [Compound I-240]
30 | 78 | COc1cccc(-c2ccc3nc(NC(=O)CC(C)(C)C)cn3n2)c1 [Compound I-186]
31 | 74 | COc1cccc(-c2ccc3nc(NC(C)=O)cn3n2)c1 [Compound I-291]
32 | 78 | COc1cccc(-c2ccc3nc(NC(=O)Nc4ccon4)cn3n2)c1 [Compound I-243]
33 | 71 | CNC(=O)Nc1cn2nc(C(=O)N[C@@H](C)C(N)=O)ccc2n1 [Compound I-121]
34 | 85 | CCCCNC(=O)Nc1cn2nc(-c3cccc(OC)c3)ccc2n1 [Compound I-117]
35 | 77 | CNC(=O)Nc1cn2nc(-c3ccc(C(C)=O)cc3)ccc2n1 [Compound I-56]
36 | 75 | COc1cccc(-c2ccc3nc(NC(=O)NCc4nccs4)cn3n2)c1 [Compound I-255]
37 | 81 | COc1cccc(-c2ccc3nc(NC(=O)NCCCN)cn3n2)c1 [Compound I-278]
38 | 89 | COc1cccc(-c2ccc3nc(NC(=O)CC(C)CC(C)(C)C)cn3n2)c1 (stereo not drawn) [Compound I-164]
39 | 67 | COc1cccc(-c2ccc3nc(NC(=O)Nc4ccc5[nH]ccc5c4)cn3n2)c1 [Compound I-241]
40 | 56 | CNC(=O)Nc1cn2nc(COc3cccc(OC)c3)ccc2n1 [Compound I-22]
41 | 89 | CNC(=O)Nc1cn2nc(C(=O)NC3CCCC3)ccc2n1 [Compound I-50]
42 | 64 | CNC(=O)Nc1cn2nc(-c3cccc(OC(C)=O)c3)ccc2n1 [Compound I-146]
43 | 67 | CNC(=O)Nc1cn2nc(N3CCCC3=O)ccc2n1 [Compound I-6]
44 | 81 | CCCNC(=O)Nc1cn2nc(-c3cccc(OC)c3)ccc2n1 [Compound I-110]
45 | 50 | CNC(=O)Nc1cn2nc(-c3cccc([N+](=O)[O-])c3)ccc2n1 [Compound I-128]
46 | 90 | CNC(=O)Nc1cn2nc(-c3ccc(-c4ccccc4)cc3)ccc2n1 [Compound I-68]
47 | 81 | COc1cccc(-c2ccc3nc(NC(=O)CCC(=O)N(C)C)cn3n2)c1 [Compound I-172]
48 | 85 | COc1cccc(-c2ccc3nc(NC(=O)NCCC(=O)OC(C)(C)C)cn3n2)c1 [Compound I-273]
49 | 64 | CNC(=O)Nc1cn2nc(-c3ccc(C(N)=O)cc3)ccc2n1 [Compound I-77]
50 | 77 | CNC(=O)Nc1cn2nc(-c3cccc(C(=O)OC)c3)ccc2n1 [Compound I-35]
51 | 55 | COc1cccc(-c2ccc3nc(NC(=O)Nc4ccsc4)cn3n2)c1 [Compound I-111]
52 | 111 | COc1cccc(-c2ccc3nc(Nc4cccc(CO)c4)cn3n2)c1 [Compound I-284]

Row | inhibition at 50 µM [%] | Compound
53 | 64 | COc1cccc(-c2ccc3nc(NC(=O)[C@H]4CCCCN4C(=O)OC(C)(C)C)cn3n2)c1 [Compound I-207]
54 | 59 | COc1cccc(-c2ccc3nc(Nc4ccccn4)cn3n2)c1 [Compound I-220]
55 | 74 | CNC(=O)Nc1cn2nc(C(=O)NCc3ccccc3)ccc2n1 [Compound I-15]
56 | 84 | CNC(=O)Nc1cn2nc(-c3cccc(N)c3)ccc2n1 [Compound I-57]
57 | 105 | CNC(=O)Nc1cn2nc(-c3cccc(NC(C)=O)c3)ccc2n1 [Compound I-124]
58 | 78 | COc1cccc(-c2ccc3nc(NC(=O)NCCCN4CCCC4=O)cn3n2)c1 [Compound I-235]
59 | 66 | CNC(=O)Nc1cn2nc(-c3ccc(S(C)(=O)=O)cc3)ccc2n1 [Compound I-72]
60 | 107 | COc1cccc(-c2ccc3nc(Nc4ccc(OCCO)cc4)cn3n2)c1 [Compound I-288]
61 | 87 | COCCCNC(=O)Nc1cn2nc(-c3cccc(OC)c3)ccc2n1 [Compound I-244]
62 | 67 | COc1cccc(-c2ccc3nc(NC(=O)NCCN)cn3n2)c1 [Compound I-264]
63 | 80 | CNC(=O)Nc1cn2nc(-c3cccc(SC)c3)ccc2n1 [Compound I-135]
64 | 85 | CNC(=O)Nc1cn2nc(-c3cccc(C(C)=O)c3)ccc2n1 [Compound I-55]
65 | 83 | CNC(=O)Nc1cn2nc(-c3ccc(OC)nc3)ccc2n1 [Compound I-148]
66 | 59 | COC[C@H]1CCCN1C(=O)Nc1cn2nc(-c3cccc(OC)c3)ccc2n1 [Compound I-261]
67 | 72 | CNC(=O)Nc1cn2nc(C(=O)Nc3ccccc3OCCN)ccc2n1 [Compound I-98]
68 | 61 | COc1cccc(-c2ccc3nc(NC(=O)C4CCN4C(C)(C)C)cn3n2)c1 (stereo not drawn) [Compound I-211]
69 | 71 | CNC(=O)Nc1cn2nc(-c3cccc(OCc4ccccc4)c3)ccc2n1 [Compound I-150]
70 | 73 | CNC(=O)Nc1cn2nc(Nc3cccc(C(=O)OC)c3)ccc2n1 [Compound I-105]
71 | 74 | COc1cccc(-c2ccc3nc(NC(=O)NCc4cccnc4)cn3n2)c1 [Compound I-239]
72 | 96 | COc1cccc(-c2ccc3nc(NC(=O)c4ccc[nH]4)cn3n2)c1 [Compound I-180]
73 | 69 | CNC(=O)Nc1cn2nc(Nc3cccc(OC)c3)ccc2n1 [Compound I-39]
74 | 79 | CNC(=O)Nc1cn2nc(C(=O)Nc3ccccc3)ccc2n1 [Compound I-43]
75 | 53 | COc1cccc(-c2ccc3nc(NC(=O)NC4CCN(S(=O)(=O)C(C)C)CC4)cn3n2)c1 [Compound I-271]
76 | 71 | COC(=O)C[C@H](C)CC(=O)Nc1cn2nc(-c3cccc(OC)c3)ccc2n1 [Compound I-171]
77 | 75 | CNC(=O)Nc1cn2nc(-c3cccc(C(=O)N4CCOCC4)c3)ccc2n1 [Compound I-138]

Row | Compound | inhibition at 50 µM [%]
78 | COc1cccc(-c2ccc3nc(NC(=O)NCCCl)cn3n2)c1 [Compound I-116] | 76
